From US20060252798A1, “Metal ion chelators and therapeutic use thereof” (priority 2003, published 2006)
Values joined by “and” are separate entries in the source; they are usually repeats but may differ in a detail not shown here. Equal entries are not always repeated. Where two headings read alike, the source gives them in different places. Values belong to the compound of their own block, whether it stands above or below them.

Experiments:
[1] = tested on: SK-N-MC neuroepithelioma cells; experiment: 59Fe mobilization from prelabelled SK-N-MC neuroepithelioma cells; assay type: cell-based, human
Protocol: The effect of chelators on ^59Fe release from prelabelled cells was studied using standard procedures.^18 Cells were prelabelled with ^59Fe-transferrin (0.75 μM) for 3 h at 37° C. […] The overlying medium was then removed and placed into γ-counting tubes. The cells were removed from the petri dishes in 1 ml of BSS using a plastic spatula and transferred to a separate set of γ-counting tubes.
The ability of the compounds to mobilise ^59Fe from SK-N-MC neuroepithelioma cells was assessed after a 3 h labelling period with ^59Fe-Tf (0.75 μM) at 37° C. […]
DFO and 311 were used as internal standards.

[2] = tested on: SK-N-MC neuroepithelioma cells; experiment: MTT cellular proliferation assay, SK-N-MC; assay type: cell-based, human
Protocol: […] […] After this incubation, 0.01 mL of MTT was added to each well and the plates incubated for 2 h at 37° C. The cells were then solubilised by adding 0.1 mL of 10% SDS-50% isobutanol in 0.01 M HCl and the plates then read at 570 nm on a scanning multiwell spectrophotometer (Titertek Multiscan; Beckman Instruments Inc, California). MTT colour formation was directly proportional to the number of viable cells.
The effect of the compounds on the proliferation of SK-N-MC neuroepithelioma cells was examined using the MTT assay (described above).
(§1) Dp2mT served as a negative control.

[3] = tested on: SK-N-MC neuroepithelioma cells; experiment: 3H-thymidine incorporation by SK-N-MC cells; assay type: cell-based, human; conditions: 20 h incubation then 2 h label; Mean ± SD, 4 experiments
Protocol: (§2) After a 20 h incubation of the SK-N-MC cells with a selection of analogues, ^3H-thymidine, ^3H-leucine, or ^3H-uridine (1 μCi/ml) was added for 2 h at 37° C. The cells were detached from the 96 well plate using 1 mM EDTA in Ca(II)/Mg(II)-free PBS and collected and washed using a cell harvester (Tomtec Harvester 96, Linbrook, Queensland, Australia). Radioactivity was measured on a P-scintillation counter (LKB Wallace, Turku, Finland).

[4] = tested on: SK-N-MC neuroepithelioma cells; experiment: 3H-leucine incorporation by SK-N-MC cells; assay type: cell-based, human; conditions: 20 h incubation then 2 h label; Mean ± SD, 4 experiments
Protocol: as §2

[5] = tested on: SK-N-MC neuroepithelioma cells; experiment: 3H-uridine incorporation by SK-N-MC cells; assay type: cell-based, human; conditions: 20 h incubation then 2 h label; Mean ± SD, 3 experiments
Protocol: as §2

MRC-5 fibroblasts = experiment: MTT cellular proliferation assay, MRC-5 fibroblasts; assay type: cell-based, human
Protocol: (§3) The final concentration of the compounds was 0.39-50 μM. […] […] After this incubation, 0.01 mL of MTT was added to each well and the plates incubated for 2 h at 37° C. The cells were then solubilised by adding 0.1 mL of 10% SDS-50% isobutanol in 0.01 M HCl and the plates then read at 570 nm on a scanning multiwell spectrophotometer (Titertek Multiscan; Beckman Instruments Inc, California). MTT colour formation was directly proportional to the number of viable cells.
The MRC-5 cell type is a normal human lung fibroblast cell strain that is mortal and senesces after a number of passages in vitro. The SK-N-MC neuroepithelioma cell type is immortal.
as §1

SK-Mel-28 melanoma cells = experiment: MTT cellular proliferation assay, SK-Mel-28; assay type: cell-based, human
Protocol: as §3, §1
(§4) Dp2mT served as a negative control as the methyl group at the 2-position hinders Fe-chelation.

[6] = tested on: MCF-7 breast cancer cells; experiment: MTT cellular proliferation assay, MCF-7; assay type: cell-based, human
Protocol: […] […] […] After this incubation, 0.01 mL of MTT was added to each well and the plates incubated for 2 h at 37° C. The cells were then solubilised by adding 0.1 mL of 10% SDS-50% isobutanol in 0.01 M HCl and the plates then read at 570 nm on a scanning multiwell spectrophotometer (Titertek Multiscan; Beckman Instruments Inc, California). MTT colour formation was directly proportional to the number of viable cells.
as §1, §4

H69AR lung cancer = experiment: MTT cellular proliferation assay, H69AR; assay type: cell-based; conditions: Homo sapiens, H69AR, 0-50 μM, 72 h, 1 experiment
Protocol: as §3
(§5) At the end of the incubation period, cell density was determined by the MTT assay (described above).

IMR-32 Neuroblastoma = experiment: MTT cellular proliferation assay, IMR-32; assay type: cell-based; conditions: Homo sapiens, IMR-32, 0-50 μM, 72 h, 1 experiment
Protocol: as §3, §5

HEP G2 Hepatoma = experiment: MTT cellular proliferation assay, HEP G2; assay type: cell-based; conditions: Homo sapiens, HepG2, 0-50 μM, 72 h, 1 experiment
Protocol: as §3, §5

DU 145 prostate cancer = experiment: MTT cellular proliferation assay, DU 145; assay type: cell-based; conditions: Homo sapiens, DU-145, 0-50 μM, 72 h, 2 experiments
Protocol: as §3, §5

NCI H2452 mesothelioma = experiment: MTT cellular proliferation assay, NCI H2452; assay type: cell-based; conditions: Homo sapiens, NCI-H2452, 0-50 μM, 72 h, 3 experiments
Protocol: as §3, §5

[7] = tested on: SK-N-MC neuroepithelioma cells; experiment: 59Fe uptake from 59Fe-transferrin by SK-N-MC neuroepithelioma cells; assay type: cell-based, human
Protocol: The cells were then placed on ice and washed four times with ice-cold Hank's balanced salt solution (BSS) to remove non-specifically bound ^59Fe-Tf. Cells were then incubated with the general protease, pronase (1 mg/ml), for 30 min at 4° C. to remove membrane-bound ^59Fe and Tf.
PCTH was used as an internal control.

Ndrg1 = Ndrg1 expression in MCF-7 cells (Western blotting); assay type: cell-based, human; conditions: 25 μM, 24 h, MCF-7 cells (FIG. 16)
Protocol: FIG. 16. […] The expression of Ndrg1 and β-actin protein levels were assessed by Western blotting.
MCF-7 cells were incubated for 24 h with a range of metal ion chelators. […] Dp2mT was used as a negative control, […]

GADD45 and WAF1 mRNA = experiment: Northern blot of WAF1 and GADD45 mRNA expression in SK-N-MC cells; assay type: cell-based, human; conditions: DFO 100 μM, other chelators 25 μM, 20 h at 37° C. (FIG. 7)
Protocol: FIG. 7. […] Northern blotting was performed using standard procedures (see Example 6).
Northern blot analysis was performed by isolating total RNA using the Total RNA Isolation Reagent (Advanced Biotechnologies Ltd, Surrey, United Kingdom). The membranes were hybridised with probes specific for human WAF1, GADD45, and β-actin. The WAF1 probe consisted of a 1 kb fragment from pSXV (ATCC; Cat. No. 79928). The GADD45 probe consisted of a 760 bp fragment from human GADD45 cDNA cloned into pHu145B2 (kindly supplied by Dr. Albert Fornace, National Cancer Institute, NIH, Maryland). The β-actin probe consisted of a 1.4 kb fragment from human β-actin cDNA cloned into pBluescript SK− (ATCC; Cat. No. 37997).

[8] = Table 2, MTT assay, 90 h incubation, Mean ± SD, 4 experiments, read-out: IC50 Values of Chelators
[9] = Table 3, 0-25 μM, 72 h, MTT, mean ± SD, read-out: IC50 SK-N-MC neuroepithelioma
[10] = Table 3, normal cells, 72 h, MTT, read-out: IC50 MRC-5 fibroblasts
[11] = Table 3, 72 h, MTT, mean ± SD, read-out: IC50 MCF-7 breast cancer
[12] = Homo sapiens, MCF7, values given in Example 8 text, read-out: IC50, anti-proliferative activity in MCF-7 cells
[13] = Homo sapiens, MRC5, Example 4c, FIG. 6, read-out: IC50 values in fibroblasts
[14] = Homo sapiens, SK-N-MC, 90 h, Table 2, MTT assay, 90 h incubation, Mean ± SD, 4 experiments, read-out: IC50 Values of Chelators

Compound: 2-pyridylketone 2-thiophenecarboxaldehyde hydrazone [PCTH]
cellular 59Fe released ([1]; chelator 1 μM, 3 h reincubation at 37° C. (FIG. 5A)): 10%
IC50 [2, 8]: 48 ± 4 µM
3H-Thymidine Incorporation [3]: 64 ± 14 % Control
3H-Leucine Incorporation [4]: 21 ± 6 % Control
3H-Uridine Incorporation [5]: 43 ± 2 % Control

Compound: 2-quinolinecarboxaldehyde 2-thiophenecarboxaldehyde hydrazone [QCTH]
IC50 [2, 8]: > 50 µM
3H-Thymidine Incorporation [3]: 83 ± 6 % Control

Compound: O=C(NN=Cc1c(O)ccc2ccccc12)c1cccnc1 [311m, 2-hydroxy-1-naphthylaldehyde nicotinoyl hydrazone]
IC50 [2, 9]: 0.8 ± 0.2 µM
IC50 (MRC-5 fibroblasts; [10]): > 25 µM
IC50 (SK-Mel-28 melanoma cells; Table 3, 72 h, mean ± SD): 1.4 ± 0.4 µM
IC50 [6, 11]: 0.9 ± 0.4 µM

Compound: COc1cccc2c1C(=O)c1c(O)c3c(c(O)c1C2=O)C[C@@](O)(C(=O)CO)C[C@@H]3O[C@H]1C[C@H](N)[C@H](O)[C@H](C)O1 [Dox, doxorubicin]
IC50 ([2]; Homo sapiens, SK-N-MC, 72 h, Table 3, 0-25 μM, 72 h, MTT, mean ± SD, read-out: IC50 SK-N-MC neuroepithelioma): 0.02 µM
IC50 (SK-Mel-28 melanoma cells; Homo sapiens, SK-MEL-28, 72 h, Table 3, mean ± SD): 0.35 ± 0.09 µM
IC50 ([6]; Homo sapiens, MCF7, 72 h, Table 3, 72 h, MTT, mean ± SD, read-out: IC50 MCF-7 breast cancer): 0.6 ± 0.2 µM
IC50 (H69AR lung cancer): 0.39 µM
IC50 (IMR-32 Neuroblastoma): 0.01 µM
IC50 (HEP G2 Hepatoma): 2.61 µM
IC50 (DU 145 prostate cancer): 0.09 µM
IC50 (NCI H2452 mesothelioma): 0.17 µM

Compound: CN(N=C(c1ccccn1)c1ccccn1)C(N)=S [Dp2mT, di-2-pyridylketone 2-methyl-3-thiosemicarbazone]
prevention of 59Fe uptake from 59Fe-Tf ([7]; 25 μM, 3 h at 37° C. (FIG. 11B)): little effect
IC50 [2, 9]: > 25 µM
IC50 (MRC-5 fibroblasts; [10]): > 25 µM
IC50 (SK-Mel-28 melanoma cells; Table 3, 72 h, mean ± SD): > 25 µM
IC50 [6, 11]: > 25 µM
up-regulation of Ndrg1 (Ndrg1): no effect

Compound: O=C(O)CN(CCN(CC(=O)O)CC(=O)O)CC(=O)O [EDTA, ethylenediamine tetraacetic acid]
IC50 [6, 12]: > 250 µM
up-regulation of Ndrg1 (Ndrg1): no effect

Compound: Cc1c(O)c(=O)ccn1C [L1, deferiprone]
IC50 [6, 12]: 180 µM
up-regulation of Ndrg1 (Ndrg1): no effect

Compound: O=C(NN=C(c1ccccn1)c1ccccn1)c1cccc(Br)c1 [PCBBH, 2-pyridylketone 3-bromobenzoyl hydrazone]
IC50 [2, 8]: 40 ± 12 µM
GADD45 and WAF1 mRNA expression (GADD45 and WAF1 mRNA): up-regulation

Compound: O=C(NN=C(c1ccccn1)c1ccccn1)c1ccccc1 [PCBH, 2-pyridylketone benzoyl hydrazone]
IC50 [2, 8]: 46 ± 7 µM
3H-Thymidine Incorporation [3]: 72 ± 16 % Control
3H-Leucine Incorporation [4]: 30 ± 13 % Control
3H-Uridine Incorporation [5]: 31 ± 9 % Control
GADD45 and WAF1 mRNA expression (GADD45 and WAF1 mRNA): little effect

Compound: O=C(NN=C(c1ccccn1)c1ccccn1)c1cccc(Br)c1 [PKBBH, di-2-pyridylketone 3-bromobenzoyl hydrazone]
IC50 [2, 8]: 1 ± 1 µM
IC50 (MRC-5 fibroblasts; [13]): 8 µM
3H-Thymidine Incorporation [3]: 0.02 % Control and 0.02 ± 0.01 % Control
3H-Leucine Incorporation [4]: 8 ± 1 % Control
3H-Uridine Incorporation [5]: 3 ± 1 % Control
GADD45 and WAF1 mRNA expression (GADD45 and WAF1 mRNA): pronounced effect

Compound: O=C(NN=C(c1ccccn1)c1ccccn1)c1ccccc1 [PKBH, di-2-pyridylketone benzoyl hydrazone]
59Fe mobilisation as a function of concentration ([1]; 0.5-50 μM, 3 h, PCTH internal control (FIG. 5A)): more effective than PCTH
prevention of 59Fe uptake as a function of concentration ([7]; 0.5-50 μM, 3 h, PCTH internal control (FIG. 5B)): higher efficacy than the control PCTH
IC50 [2, 8]: 3 ± 1 µM
IC50 (MRC-5 fibroblasts; [13]): 11 µM
3H-Thymidine Incorporation [3]: 0.03 ± 0.01 % Control
3H-Leucine Incorporation [4]: 21 ± 2 % Control
3H-Uridine Incorporation [5]: 5 ± 1 % Control
GADD45 and WAF1 mRNA expression (GADD45 and WAF1 mRNA): pronounced effect

Compound: c1ccc(-c2ccccn2)nc1 [dipyridyl]
IC50 ([6]; Homo sapiens, MCF7, read-out: IC50, anti-proliferative activity in MCF-7 cells): > 250 µM
up-regulation of Ndrg1 (Ndrg1): no effect

Compound: CC(C)(S)[C@@H](N)C(=O)O [penicillamine]
up-regulation of Ndrg1 (Ndrg1): no effect

Now from value to compound, other results behind:

IC50 [2, 14]: > 50 µM
Compound: Nc1ccc(C(=O)NN=Cc2ccc3ccccc3n2)cc1 [QCAH, 2-quinolinecarboxaldehyde 4-aminobenzoyl hydrazone]
3H-Thymidine Incorporation [3]: 43 ± 2 % Control

IC50 [2, 14]: 49 ± 3 µM
Compound: O=C(NN=Cc1ccc2ccccc2n1)c1cccc(Br)c1 [QCBBH, 2-quinolinecarboxaldehyde 3-bromobenzoyl hydrazone]
3H-Thymidine Incorporation [3]: 81 ± 10 % Control

IC50 [2, 14]: 50 ± 1 µM
Compound: O=C(NN=Cc1ccc2ccccc2n1)c1ccccc1 [QCBH, 2-quinolinecarboxaldehyde benzoyl hydrazone]
3H-Thymidine Incorporation [3]: 64 ± 5 % Control

IC50 [2, 14]: > 50 µM
Compound: O=C(NN=Cc1ccc2ccccc2n1)c1ccc(O)cc1 [QCHH, 2-quinolinecarboxaldehyde 4-hydroxybenzoyl hydrazone]
3H-Thymidine Incorporation [3]: 41 ± 2 % Control

IC50 [2, 14]: 49 ± 3 µM
Compound: O=C(NN=Cc1ccc2ccccc2n1)c1ccncc1 [QCIH, 2-quinolinecarboxaldehyde isonicotinoyl hydrazone]
59Fe mobilisation from prelabelled cells ([1]; DFO 100 μM, other chelators 50 μM, 3 h (FIG. 3)): comparable cellular ^59Fe mobilisation to PCIH
3H-Thymidine Incorporation [3]: 77 ± 9.5 % Control
